Laboratory results: patent US7258861B2, “TNF-derived peptides for use in treating oedema” (Innogenetics N.V., priority 2001, dated 2007)
Several values for one entry are separate records, joined by “and”; a condition that tells them apart may be missing. Equal values may be shown once. Positions of bridges follow the written chain, without caps; N, C: chain ends. No end group written: not given here.

Tests used:
isolated rat lungs [1] = tested on: isolated rat lungs
Description: (§1) Rats. For the ex vivo experiments, 31 Sprague-Dawley rats (300 to 350 g) were tracheotomized and mechanically ventilated (40% oxygen in air) under isoflurane anesthesia. The experimental protocol was reviewed and approved by the Ethics Committee for Animal Research and by the Veterinary Office of our institution. The femoral vessels were cannulated for blood sampling, fluid replacement, and continuous arterial blood pressure monitoring. Following anticoagulation (1.5 IU/g i.v. heparin), 20 ml of blood were withdrawn and replaced by an equal volume of dextran-40 (Macrodex 10% in normosaline) to serve as priming volume for the isolated perfusion circuit. The heart-lung block was prepared as described by Ma et al., 2000, weighed and assigned to one of four groups. […] The lungs were suspended, mechanically ventilated, and perfused at constant pressure with autologous blood as described by Ma et al., 2000.
(§2) An inspiratory and expiratory quasi-static pressure-volume (PV) curve was performed at the end of the 2-hour reperfusion period by inflating and then deflating the lungs at a constant rate (0.3 ml/sec) using an automated infusion pump. A sigh was applied in all groups every 15 minutes to minimize atelectasis formation. The blood pH was maintained between 7.3 and 7.5 and, if necessary, corrected with sodium bicarbonate 8.4% or a change of the inspired CO2 as required by the blood gas analysis. Every 30 minutes, a blood sample was collected for blood gas analysis as well as for hematocrit and electrolyte concentration.
(§3) Inclusion criteria. Immediately following the start of reperfusion, the preparation had to fulfill three technical inclusion criteria: • 1) left atrial pressure (LAP) 5-10 mmHg; • 2) peak airway pressure (AWP) <15 cmH2O; and • 3) pulmonary blood flow (PBF) >10 ml/min. […] The included lungs were then flooded with gentle intratracheal instillation of 2 ml normal saline and the recorded variables measured for 2 subsequent hours.
(§4) Histological analysis. Random lung samples were fixed for light and electron microscopy and analyzed by pathologists blinded to the lung's protocol group assignment.

isolated rat lungs [2] = assay: Isolated blood perfused flooded rat lung (weight, lung mechanics, PV curves, histology)
Description: as §1, §2, §3, §4

[3] = tested on: left lung of Fischer (F344) rats; assay: Rat model of lung reperfusion injury (warm ischemia and reperfusion); type: in vivo; conditions: for pO2 blood gas levels: 6 to 90 minutes of LLOT, cyclic hum Ltip 500 μg/kg to 5 μg/kg, hum mut Tip 500 μg/kg; for gain in pO2 blood gas: iv application
Description: In a modification of the model of Ohno et al. (1993) male Fischer (F344) rats (200–250 g) undergo clamping of the left pulmonary artery, pulmonary vein and main bronchus for 36 minutes of warm ischemia. After reperfusion of the left lung, the right lung is occluded to assess the function of the left lung for 90 minutes. The peptide is given at 3 minutes after reperfusion by either instillation or intravenous injection via the subclavian vein.
• 1. Anaesthesia of the rat in a glass chamber, 4% Halothane and Oxygen 4/min. • 2. Intubation of the rat with a 1.8 mm catheter, • 3. Shaving the fur on the abdomen and left side of the animal. • 4. Ventilation via the tracheal tube 100/min, 2.5 ml 20% oxygen, Harvard Rodent Ventilator (Harvard Apparatus, South Natick, Mass.), PEEP 5 mm H2O. • 5. A left thoracotomy is carried out in the in 4th intercostal space. • 6. Dissection of the left lung hilar region. • 7. Microvascular clips are placed around the left pulmonary artery (PA), Pulmonary vein (PV) and left main bronchus (B) to induce warm ischemia of the left lung. Small circulation is still ongoing through the right lung. This is the start of the Warm Ischemia Time (WIT). • 8. Anaesthaesia is maintained with 2% Halothane, 40% Oxygen. • 9. A provisory Z suture is made to temporary close the thoracotomy and a gaze sponge is put on the animal to decrease warmth loss. • 10. Near the end of the WIT, a thoracophrenolaparatomy in the midline with thorough electrocaterisation. (two peans on the sternum). • 11. Putting 2-0 Softsilk on the trachea around the intubation tube. • 12. Dissection of the right hilar elements. • 13. Taking away microvascular clips from the left hilar elements. End of WIT of the left lung after 36 minutes. • 14. Putting microvascular clips on right PA and B. Small circulation only through left lung. Start developing of left oedema time (LLOT). • 15. After 3 minutes of LLOT: instillation of the drug in 0.5 ml of 0.9% saline solution (Baxter) or injection of the drug in 0.25–0.3 ml of 0.9% saline through the subclavian vein. • 16. After 6, 30, 60 and 90 minutes of LLOT, puncture of the Aortic Arch (AA) with needle for blood gas analysis in Radiometer ABL 700 Serie, (Denmark). • 17. After each puncture the AA puncture hole is pressed with a cotton swab. • 18. Blood gas analysis is taken every time from AA (the heart rate should be over 60). • 19. After the last blood gas analysis (90 minutes), both lungs are flushed via the PA with 20 ml of 0.9% saline at a pressure of 20 cm H2O. […] The heart-lung block is excised for storage under formaline or in the freezer awaiting immunohistopathological analysis. Alternatively, the lung can be excised without flushing to assess wet to dry ratio's. Results (FIG. 7)

[4] = tested on: ex vivo instilled rat lung; assay: Ex vivo rat flooded lung, model of hydrostatic edema; conditions: for clearing alveolar fluid content ex vivo: after intratracheal instillation
Description: In this model edema is induced by instillating 2 ml of 0.9% NaCl solution intratracheally. Alternatively, edema formation can be modulated by varying the height of the venous outflow and the perfusion buffer containing reservoir, or alternatively by varying the time the lung is exposed to the elevated pressure. […] The clearance of alveolar fluid from the lung is calculated by means of measuring the concentration of HSA, which is added to the instillate over time. Alternatively, the over time weight loss as a measure of edema resorption (high weight loss is high liquid clearance), of the artificially instilled lung can be measured. The lung tidal volume, compliance and weight are monitored continuously during the experiment. At the end of the experiment bronchoalveolar fluid and supernatant of lung homogenate is taken for measurement of inflammatory mediators.
The lungs of female Wistar rats (weight 200–250 g; Harlan-Winkelmann, Borchen, Germany) are prepared after terminal i.p. anesthesia by 160 mg/kg pentobarbitural —Na (Merial Ltd, Halbermoos, Germany) and perfused as described by Uhlig and Wolin (1994), and by Uhlig and von Bethmann (1997). All equipment is obtained from Hugo Sachs Electronics (March-Hugstetten, Germany). […] As perfusion medium, a Krebs-Henseleit buffer (38° C.) containing 2% bovine serum albumin (Fraction V, Scrva. Heidelberg, Germany), 0.1% glucose (Riedel-de-Haën Inc., Seelze, Germany), and 0.3% HEPES (ICN Biomedicals Inc., Ohio, USA) is used. The total amount of recirculating buffer is 100 ml. The lungs are suspended by the trachea and ventilated by negative pressure ventilation (inspiratory pressure: −7 cm H2O, expiratory pressure: −2 cm H2O) with 80 breaths per minute resulting in a tidal volume of approximately 2 ml. Every 5 minutes, a deep inspiratory breath (−20 cm H2O) is performed. Artificial thorax chamber pressure is measured with a differential pressure transducer (Validyne DP 45-14), and an air flow velocity with a pneumotachograh tube (Fleisch Type 0000) connected to a differential pressure transducer (Validyne DP 45-15). The perfusate flow (Narcomatic RT-500) and the arterial and venous pressure (Statham P23BB) are continuously monitored. The pH of the perfusate before entering the lung is kept at 7.25 to 7.35 by automatic bubbling of the buffer with CO2 as soon as the pH exceeds this range. A weight transducer is integrated into the chamber lid which allows the continuous assessment of lung weight. Data are recorded on a Pentium II computer using the Mathlab Sofware package (Mathworks, Inc., Nattick Mass., USA). For lung mechanics, the data are analyzed by applying the following formula: P=1/C*VT+RLdV/dT
Where P is chamber pressure, C pulmonary compliance, VT tidal volume, and RL airway resistance. All lung physiology parameters were normalized to time point 0, i.e. after the end of the preconditioning perfusion of 40 minutes.

[5] = tested on: transplanted left lung of rats; assay: Single left lung transplantation in syngeneic rats; type: in vivo, rat; conditions: 24 hours after transplantation; donor lung pre-treated by intratracheal application, 500 μg/kg
Description: Female Wistar of Fischer rats or weighting 250 to 260 g undergo orthotopic single left lung transplantation after 20 hours cold ischemia using a cuff technique for the vessel anastomoses and a conventional running suture for the bronchial anastomosis.
Donor procedure: Animals are anesthetized by intraperitoneal administration of pentobarbital (50 mg/kg) and heparinized (500 I.U./kg). A tracheotomy is performed and the animals are ventilated trough a cannula with 100% O2 by a Harvard rodent ventilator (Harvard apparatus, South Natick, Mass.) at a tidal volume of 10 ml/kg. […] Both lungs are flushed with 20 cc of low-potassium dextran-solution (LPD) (Perfadex®, Kabi Pharmacia, Sweden) at a pressure of 20 cm H2O. The trachea is then tied in end-inspiration. After removal of the heart-lung block, 14 gauge cuffs are placed around the pulmonary artery and vein, and the vessels are inverted and tied onto the cuff. The lung is stored in LPD solution at 4° C. until implantation.
Recipient procedure: Transplantation was performed after 20 hours of cold ischemia (4° C.). The recipient is anesthetized by breathing Halothane in a glass chamber, intubated, and anesthesia is maintained with Halothane 2%. A left lateral thoracotomy is performed in the 4th intercostal space. The left hilium is dissected. […]

Sequence	leukocyte infiltration (lung histology) (isolated rat lungs [1])	lung weight change over time after alveolar flooding (isolated rat lungs [2]; 2 hours reperfusion after 2 ml saline, TNF 5 μg, peptides 1 mg)	lung mechanics (peak AWP, Cdyn, Raw) after alveolar flooding (isolated rat lungs [2]; 2 hours reperfusion, TNF 5 μg, peptides 1 mg)	fraction of intratracheal instilled saline lost (isolated rat lungs [2]; at 2 hours, 1 mg)	inflation volume at lower inflection point (isolated rat lungs [2]; end of 2-hour reperfusion, 1 mg) [mL]	lower inflection point of inspiratory quasi-static PV curve (isolated rat lungs [2]; end of 2-hour reperfusion, TNF 5 μg, peptide 1 mg) [cmH2O]	pO2 blood gas levels [3]	gain in pO2 blood gas [3]	clearing alveolar fluid content ex vivo ([4]; summary in words)	pCO2 levels ([3]; 500 μg/kg to 5 μg/kg, data not shown)	pO2 [5]	activity in fluid clearance ([4]; measured 80 minutes after instillation, summary in words)	Weight loss of ex vivo instilled rat lung over 80 min ([4]; synthetic peptide 1000 μg/lung)	Weight loss of ex vivo instilled rat lung over 100 min ([4]; synthetic peptide 1000 μg/lung)
CGPKDTPEGAELKPWYC (disulfide 1-17; listed as Mus musculus) [cyclic mu Ltip]	did not show this increased leukocyte infiltration	progressively decreased in weight	progressive improvement in lung mechanics	approximately half	3.4 ± 0.9	17.2±1.6	–	–	–	–	–	–	–	–
CGQREAPAGAAAKPWYC (disulfide 1-17) [hum mut Tip, reference compound]	–	–	–	–	–	–	followed completely the values seen in the control animals	no effect	inactive	–	–	–	–	–
CGQRETPEGAEAKPWYC [cyclic hum Ltip]	–	–	–	–	–	–	significantly much better pO2 levels	significantly increased gain in pO2 blood gas	capable of clearing alveolar fluid content	lower pCO2 levels	395+/−95 mmHg	equally active	658 mg and 585 mg and 663 mg and 648 mg and 575 mg and 931 mg and 900 mg and 918 mg	1009 mg and 744 mg and 685 mg and 663 mg and 758 mg and 694 mg and 1004 mg and 1000 mg
